Source: US8742173B2, “Phenolic hydrazone macrophage migration inhibitory factor inhibitors” (The Feinstein Institute for Medical Research, priority 2006, dated 2014)
Like-named read-outs stand apart in the source and are kept apart here.

Legend:
MIF [1] = target: T1, MIF (Homo sapiens, UniProt P14174); test: Spectrophotometric assay of MIF tautomerase activity on L-dopachrome methyl ester; format: biochemical
T1 sequence (P14174 2-115 limits assumed): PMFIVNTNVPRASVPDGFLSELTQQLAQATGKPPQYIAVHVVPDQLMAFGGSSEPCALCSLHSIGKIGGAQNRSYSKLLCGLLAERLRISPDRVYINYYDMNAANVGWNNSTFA
Description: The inhibitors 3-15 were dissolved in DMSO at various concentrations (0.1-100 μM) and 1 μL was added to the cuvette with the MIF prior to the addition of the dopachrome.
The inhibitors were dissolved in DMSO at various concentrations (0.1-100 mM) and added to the cuvette with the MIF prior to the addition of the dopachrome.

Balb/C mice [2] = conditions: Al-Abed et al., 2005; cited from earlier work
LPS-treated macrophages = conditions: cited from earlier work
MIF [3] = target: T1, MIF; conditions: previously shown (Dios et al., 2002); read-out: IC50, L-amino acid Schiff bases, MIF tautomerase; cited from earlier work
Balb/C mice [4] = test: Cecal ligation and puncture (CLP) sepsis model, survival; format: in vivo; conditions: 4 mg/kg intraperitoneal, initiated 24 h after CLP, continued for 3 days; control 28%
Description: FIG. 4 is a graph of experimental results showing that the hydrazone compound 7 is protective after 24 h late treatment in a CLP model. Mice were injected intraperitoneally with compound 7 (“hydrazone”) (4 mg/kg) (n=13, p<0.01) or vehicle 24 h after CLP (n=13). A single injection was composed of 100 μg of Compound 7 (equivalent to 4 mg/kg) in 200 μL of 20% DMSO: 80% saline solution. Additional administrations of compound 7 (bi-daily) were given on days 2 and 3.
All animal experiments were approved by the Institutional Animal Care and Use Committee of the North Shore-Long Island Jewish Research Institute. Male Balb/C mice, ˜8 weeks old, were subjected to cecal ligation and puncture. Details of the CLP procedure has been carried out as follows: In anesthetized male Balb/C mice (ketamine 100 mg/kg and xylazine 8 mg/kg administered intramuscularly) the cecum was ligated and given a single puncture. Abdominal access was gained via a midline incision. The cecum was isolated and ligated with a 6-0 silk ligature below the ileocecal valve, and the cecum punctured once with a 22 G needle, stool (approximately 1 mm) extruded from the hole, and the cecum placed back into the abdominal cavity. The abdomen was closed with two layers of 6-0 Ethilon sutures. […] Animal survival was monitored for 14 days. […]

Swiss Webster male mice = test: Carrageenan air pouch model, leukocyte recruitment; format: in vivo; conditions: oral administration; assessed by inhibition of leukocyte infiltration
Description: Air pouches were made according to standard procedures (Garcia-Ramallo et al., 2002) on Swiss Webster male mice (25-30 g) by injecting sterile air s.c. on day 0 (6 ml) and day 3 (3 ml). On day 6, animals were treated with vehicle (350 μl of 20% DMSO) or compound 7 (7 mg/kg) either intraperitoneal (i.p.) or gavage (oral) as indicated. After 15 min, the animals were challenged by injecting 1 ml 1% carrageenan (in PBS) into the air pouch cavity. Five hrs after carrageenan injection the animals were sacrificed, the pouches washed with PBS, exudate collected, and the total number of infiltrating cells quantitated.
In another experiment, air pouches were made as above. On day 6, animals were treated with vehicle (350 μl of 20% DMSO) or compound 7 (7 mg/kg, gavage) at the indicated times prior to sacrificing and cell harvesting. In all cases, 1% carrageenan was injected into the air pouch cavity 5 hrs before sacrificing.

[5] = read-out: IC50, MIF tautomerase activity
[6] = read-out: IC50, MIF tautomerase
[7] = Table 1, L-dopachrome methyl ester substrate, read-out: IC50 for inhibition of MIF tautomerase activity

For `CNN=Cc1ccc(O)cc1` [Compound 4], the IC50 (MIF [1]; [5]) was 43000 nM and the melting point was 58 to 60 °C.

Work on `COc1ccc(NN=Cc2ccc(O)c(Cl)c2)cc1` [Compound 8] yielded an IC50 (MIF [1]; [6]) of 220 nM and a melting point of 108 to 110 °C.

For `COC(=O)CC1CC(c2ccc(O)cc2)=NO1` (stereo not drawn) [Compound 2, ISO-1], the “survival in septic mice” value (Balb/C mice [2]) is given as “significantly improves survival”, the “inhibition of LPS-induced TNF release” value (LPS-treated macrophages; MIF null macrophages) is given as “not” and the “inhibition of LPS-induced TNF release” value (LPS-treated macrophages; wild-type macrophages) is given as “dose-dependently inhibits”.

Work on `CC(C)(C)OC(=O)NN=Cc1ccc(O)c(F)c1` [Compound 18] yielded an IC50 (MIF [1]; Table 2, hydrazone carbamates, L-dopachrome methyl ester substrate, read-out: IC50 for inhibition of MIF tautomerase activity) of 2400 nM.

For `N[C@@H](Cc1ccccc1)C(=O)O` [L-phenylalanine], the IC50 (MIF [3]) is given as 50000 nM.

Work on `Oc1ccc(C=NNc2ccccc2)cc1` [Compound 5] yielded an IC50 (MIF [1]; [5]) of 2600 nM and a melting point of 154 to 156 °C.

Molecule `COc1ccc(NN=Cc2ccc(O)c(Br)c2)cc1` [Compound 9] has an IC50 (MIF [1]; [6]) of 330 nM and a melting point of 135 to 137 °C.

Molecule `O=C(NN=Cc1ccc(O)cc1)OCc1ccccc1` [Compound 14] has a melting point of 159 to 160 °C.

For `COc1ccc(NN=Cc2ccc(O)c(F)c2)cc1` [Compound 7], the IC50 (MIF [1]; [6]) was 130 nM, the survival rate (Balb/C mice [4]) was 65% and the apparent biological half-life (Swiss Webster male mice) was 7-9 hours.

Molecule `CC(C)(C)OC(=O)NN=Cc1ccc(O)cc1` [Compound 13] has a melting point of 155 to 156 °C.

For `N[C@@H](Cc1ccc(O)cc1)C(=O)O` [L-tyrosine], the IC50 (MIF [3]) is listed as 10000 nM.

`COc1ccc(NN=Cc2ccc(O)cc2)cc1` [Compound 6] gave an IC50 (MIF [1]; [7]) of 480 nM.

With `CN(N=Cc1ccc(O)cc1)c1ccccc1` [Compound 10] the IC50 (MIF [1]; [5]) was 300000 nM and the melting point was 93 to 95 °C.

`COc1ccc(COC(=O)NN=Cc2ccc(O)cc2)cc1` [Compound 15] showed a melting point of 147 to 148 °C.

Molecule `CCOC(=O)NN=Cc1ccc(O)cc1` [Compound 12] has a melting point of 189 to 190 °C.

In the case of `NN=Cc1ccc(O)cc1` [Compound 3], the IC50 (MIF [1]; [7]) is reported as > 500000 nM, the IC50 (MIF [1]; [5]) is reported as > 500000 nM and the melting point is reported as 248 to 250 °C.
